Test results: patent US6635641B2 (Agouron Pharmaceuticals, Inc., priority 2000, dated 2003)

Columns and labels:
CDK2/Cyclin A complex = CDK2/Cyclin A complex (Homo sapiens, UniProt P24941); assay: CDK2/Cyclin A assay ([32P]ATP incorporation into Rb fragment); assay type: biochemical; conditions: read-out: CDK2 percent inhibition
Experimental: CDK2 was purified using published methodology (Rosenblatt et al., J. Mol. Biol., 230, 1317-1319 (1993)) from insect cells that had been infected with a baculovirus expression vector. Cyclin A was purified from E. coli cells expressing full-length recombinant cyclin A, and a truncated cyclin A construct was generated by limited proteolysis and purified as described previously (Jeffrey et al., Nature, 376, 313-320 (1995)).
Cyclin-dependent kinase activity was measured by quantifying the enzyme-catalyzed, time-dependent incorporation of radioactive phosphate from [^32P]ATP into a recombinant fragment of the retinoblastoma protein. Unless noted otherwise, assays were performed in 96-well plates in a total volume of 50 μL, in the presence of 10 mM HEPES (N-[2-hydroxyethyl]piperazine-N′-[2-ethanesulfonic acid]) (pH 7.4), 10 mM MgCl2, 25 μM adenosine triphosphate (ATP), 1 mg/mL ovalbumin, 5 μg/mL leupeptin, 1 mM dithiothreitol, 10 mM β-glycerophosphate, 0.1 mM sodium vanadate, 1 mM sodium fluoride, 2.5 mM ethylene glycol-bis(β-aminoethyl ether)-N,N,N′N′-tetraacetic acid (EGTA), 2% (v/v) dimethylsulfoxide, and 0.03-0.2 μCi [^32P]ATP. The substrate (0.3-0.5 μg) was purified recombinant retinoblastoma protein fragment (Rb) (residues 386-928 of the native retinoblastoma protein; 62.3 kDa, containing the majority of the phosphorylation sites found in the native 106-kDa protein, as well as a tag of six histidine residues for ease of purification). Reactions were initiated with CDK2 (150 nM CDK2/Cyclin A complex) or CDK4 (50 nM CDK4/Cyclin D3 complex), incubated at 30° C., and terminated after 20 minutes by the addition of ethylenediaminetetraacetic acid (EDTA) to 250 mM. The phosphorylated substrate was then captured on a nitrocellulose membrane using a 96-well filtration manifold, and unincorporated radioactivity was removed by repeated washing with 0.85% phosphoric acid. Radioactivity was quantified by exposing the dried nitrocellulose membranes to a phosphorimager. Apparent Ki values were measured by assaying enzyme activity in the presence of different compound concentrations and subtracting the background radioactivity measured in the absence of enzyme. The kinetic parameters (kcat, Km for ATP) were measured for each enzyme under the usual assay conditions by determining the dependence of initial rates on ATP concentration. The data were fit to an equation for competitive inhibition using Kaleidagraph (Synergy Software), or were fit to an equation for competitive tight-binding inhibition using the software KineTic (BioKin, Ltd.). Measured Ki values for known inhibitors against CDK4 and CDK2 agreed with published IC50 values. […]

SMILES	inhibition at 1 µM (CDK2/Cyclin A complex) [%]	inhibition at 100 µM (CDK2/Cyclin A complex; @ 100 μM) [%]	melting point [°C]
Cc1cc(NC(=O)c2ccc(F)c(OCc3cncc4ccccc34)c2)ccc1C(C)C [Example K-10, N-(4-Isopropyl-3-methyl-phenyl)-4-fluoro-3-(Isoquinolin-4-yl)methoxy-benzamide]	12	–	–
Cc1ccc2cc(NC(=O)c3cccc(SCc4cc(Nc5ccccc5)n[nH]4)c3)ccc2n1 [Example E-1, N-(2-methyl-quinolin-6-yl)-3-[{5-(phenylamino)-2-H-pyrazol-3-yl}methylsulfanyl]benzamide]	–	23	172 to 174
CC(=O)Nc1ccc(COc2cccc(C(=O)Nc3ccc4nc(C)ccc4c3)c2)cn1 [Example N-1, 3-(6-Acetylaminopyridin-3-yl)methoxy-N-(2-methyl-quinolin-6-yl)-benzamide]	18	–	–
